Test results published in patent KR20110010755A, “결정질 2-((2s,3r,4e,6e,10e,12s)-13-(4-플루오로페녹시)-2,3,12-(트리히드록시트리데카-4,6,10-트리엔-8-이닐)옥시)아세트산의 무수물 및 수화물 형태” (바이엘 쉐링 파마 악티엔게젤샤프트, priority 2008, dated 2009).

Assays:
[1] = Relative chemical stability of polymorph I over 4 weeks under storage (HPLC purity); type: physicochemical; details: for HPLC purity: week 0; for HPLC purity at 336 h / HPLC purity at 672 h: solid storage; for HPLC purity at 336 h: week 2; for HPLC purity at 672 h: week 4
[2] = Hygroscopicity: water sorption/desorption in an automated water sorption analyser, 25 ℃; type: physicochemical
[3] = tested on: human neutrophils [인간 호중구]; details: through human endothelial cells and epithelial cells, e.g. human intestinal epithelial cell line T84; literature; cited from earlier work

With `O=C(O)COC[C@H](O)[C@H](O)/C=C/C=C/C#C/C=C/[C@H](O)COc1ccc(F)cc1` [다형체 I, 2-((2S,3R,4E,6E,10E,12S)-13-(4-플루오로페녹시)-2,3,12-트리히드록시트리데카-4,6,10-트리엔-8-이닐옥시)아세트산] as the molecule, how does the HPLC purity ([1]; 25 ℃, dry) read?
Its HPLC purity is 97.36%.

What about the HPLC purity ([1]; 25 ℃/60%RH) of the same molecule?
Its HPLC purity is 97.36%.

And the HPLC purity ([1]; 40 ℃, dry)?
The HPLC purity was 97.36%.

What about the HPLC purity ([1]; 40 ℃/75%RH) of the same molecule?
The HPLC purity was 97.36%.

What about the HPLC purity at 336 h ([1]; 25 ℃, dry) of the same molecule?
Its HPLC purity at 336 h is 97.5%.

And the HPLC purity at 672 h ([1]; 25 ℃, dry)?
Its HPLC purity at 672 h is 97.5%.

And the HPLC purity at 336 h ([1]; 25 ℃/60%RH)?
Its HPLC purity at 336 h is 97.5%.

And the HPLC purity at 672 h ([1]; 25 ℃/60%RH)?
The HPLC purity at 672 h was 97.7%.

And the HPLC purity at 336 h ([1]; 40 ℃, dry)?
Its HPLC purity at 336 h is 96.9%.

And the HPLC purity at 672 h ([1]; 40 ℃, dry)?
The HPLC purity at 672 h was 96.4%.

And the HPLC purity at 336 h ([1]; 40 ℃/75%RH)?
Its HPLC purity at 336 h is 95.9%.

And the HPLC purity at 672 h ([1]; 40 ℃/75%RH)?
Its HPLC purity at 672 h is 92.5%.

And the moisture adsorbed ([2]; 80% relative humidity, corresponds to the dihydrate of the substance)?
Its moisture adsorbed is about 8%.

What about the hygroscopicity ([2]; in words) of the same molecule?
The hygroscopicity was “흡습성”.

What about the reversibility of hydration ([2]; in words) of the same molecule?
The reversibility of hydration was “가역적”.

What about the “relative humidity at which polymorph I transforms into the hydrate” value ([2]; relative humidity) of the same molecule?
The value was over 60%.

For `CCCCC[C@H](O)/C=C/C=C\C=C\C=C\[C@@H](O)[C@@H](O)CCCC(=O)O` [리폭신 A4], which “inhibition of transmigration of human neutrophils” value [3] is on record?
Its value is “억제한다”.

Which “relative humidity at which transformation into polymorph I is observed” value ([2]; relative humidity, reversal of hydration) does the source give for `O=C(O)COC[C@H](O)[C@H](O)/C=C/C=C/C#C/C=C/[C@H](O)COc1ccc(F)cc1` [수화물, 2-((2S,3R,4E,6E,10E,12S)-13-(4-플루오로페녹시)-2,3,12-트리히드록시트리데카-4,6,10-트리엔-8-이닐옥시)아세트산] here?
Its value is under 40%.
